Results: US20260364184A1, “COMPOUND BASED ON OXOISOINDOLINYL-SUBSTITUTED TETRAHYDROPYRIMIDINE-DIONE AND USE THEREOF” (GLUETACS THERAPEUTICS (SHANGHAI) CO., LTD., priority 2023, published 2026)

Legend:
Format in all cases: cell-based
[1] = system: Human myeloid monocytic leukemia cell line (MV-4-11); experiment: Inhibition of MV-4-11 cell proliferation (CellTiter luminescent viability); conditions: Homo sapiens, MV4-11, Table IG2, FAK inhibitor-based, 96 hours; for inhibition at 0.01 µM: MV-4-11, 10 nM, read-out: Inhibition Rate at 10 nM (%); for inhibition at 0.5 µM: MV-4-11, 500 nM, read-out: Inhibition Rate at 500 nM (%)
Summary of the method: (§1)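 Cells are seeded in 96-well plates, cultured at 37 °C, 5% CO2, and treated next day with 5-fold serial compound dilutions (stock series from 2000 μM; 0.5 μL into 100 μL medium). Viability is read by CellTiter-Meiluncell luminescence after the set exposure, and IC50 is taken from growth-inhibition curves.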

FAK = target: T1, FAK (Homo sapiens, UniProt Q05397); experiment: Western blot degradation of FAK; conditions: A549 Cell; 24 hours
T1 construct: expression of target proteins in cells; endogenous in cells
T1 sequence (Q05397 whole entry): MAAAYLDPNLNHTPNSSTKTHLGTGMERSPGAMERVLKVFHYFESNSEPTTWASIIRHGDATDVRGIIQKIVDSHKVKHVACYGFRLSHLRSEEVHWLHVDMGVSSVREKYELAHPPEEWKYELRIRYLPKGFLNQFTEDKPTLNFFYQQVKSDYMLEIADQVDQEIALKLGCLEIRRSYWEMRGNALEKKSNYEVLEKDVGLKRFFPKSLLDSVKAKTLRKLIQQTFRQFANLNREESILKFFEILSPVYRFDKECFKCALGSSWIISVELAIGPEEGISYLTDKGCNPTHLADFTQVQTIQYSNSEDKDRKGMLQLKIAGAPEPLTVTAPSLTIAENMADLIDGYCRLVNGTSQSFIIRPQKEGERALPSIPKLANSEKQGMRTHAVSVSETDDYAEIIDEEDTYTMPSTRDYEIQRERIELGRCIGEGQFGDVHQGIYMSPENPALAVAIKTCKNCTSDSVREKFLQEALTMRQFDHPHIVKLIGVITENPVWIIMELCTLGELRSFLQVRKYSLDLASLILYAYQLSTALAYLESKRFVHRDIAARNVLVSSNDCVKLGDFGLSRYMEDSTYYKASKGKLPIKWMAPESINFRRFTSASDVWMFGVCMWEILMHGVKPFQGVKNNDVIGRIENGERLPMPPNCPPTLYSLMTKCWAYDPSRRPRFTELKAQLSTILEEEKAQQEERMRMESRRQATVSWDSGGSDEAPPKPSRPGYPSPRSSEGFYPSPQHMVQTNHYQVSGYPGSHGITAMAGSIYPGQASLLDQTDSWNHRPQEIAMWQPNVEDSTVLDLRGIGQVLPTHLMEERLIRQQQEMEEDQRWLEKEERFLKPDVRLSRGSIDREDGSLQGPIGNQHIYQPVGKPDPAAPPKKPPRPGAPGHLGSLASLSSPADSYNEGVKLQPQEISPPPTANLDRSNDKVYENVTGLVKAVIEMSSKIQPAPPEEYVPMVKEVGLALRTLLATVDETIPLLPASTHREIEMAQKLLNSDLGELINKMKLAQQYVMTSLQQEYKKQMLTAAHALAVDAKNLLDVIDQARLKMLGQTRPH
Protocol: (§2) Conventional Western blot assay was performed to evaluate the effects of the compounds of the present disclosure on the expression of target proteins in cells.
(§3) (1) Cell Seeding and Protein Harvesting: The selected cells were processed according to the cell seeding procedure and protein harvesting procedure in Table II-2.
(§4) (2) To the collected supernatant, 5×SDS sample loading buffer was added, followed by denaturation at 95 °C for 5 minutes. The denatured samples were then separated by SDS-PAGE electrophoresis on a polyacrylamide gel. Proteins were transferred to a nitrocellulose membrane (0.45 μm NC membrane), blocked with blocking buffer at room temperature for 1 hour, and subjected to antibody incubation and development procedures according to the antibody manufacturer's instructions (Cell Signaling Technology).
(§5) Half-Maximal Degradation Concentration value (the drug concentration required for degrading proteins by 50%, abbreviated as DC50) reads method: comparing the grayscale values of Western blot bands from drug-treated samples with those from blank DMSO-treated controls, and identifying the drug concentration range at which the grayscale value is half that of the DMSO-treated control bands.
(§6) DC50 values can be calculated using ImageJ software to measure grayscale values of Western blot bands from drug-treated samples. The concentration-response curve is fitted to estimate the drug concentration corresponding to half the grayscale value.
(§7) Target protein remaining (%) refers to the percentage of target protein remaining in cells after treatment with protein degrader compounds.
(§8) Calculation method for target protein remaining (%): Use ImageJ software to measure grayscale values of Western blot bands from drug (protein degrader)-treated samples. The grayscale value of drug-treated bands is divided by that of internal control protein bands, and the resulting quotient is normalized to obtain the relative percentage of remaining target protein after protein degrader treatment.
(§9) Target protein degradation rate (%)=1−target protein remaining (%).

[2] = system: Human breast cancer cell line (MDA-MB-231); experiment: Inhibition of MDA-MB-231 cell proliferation (CellTiter luminescent viability); conditions: Table IG3, FAK inhibitor-based, 96 hours; for inhibition at 0.01 µM: MDA-MB-231, 10 nM, read-out: Inhibition Rate at 10 nM (%); for inhibition at 0.5 µM: MDA-MB-231, 500 nM, read-out: Inhibition Rate at 500 nM (%)
Protocol: The tumor cells used herein were cultured in a cell culture medium listed in table 3 at 37 °C in an incubator with 5% CO2. Prior to experimentation, all cell lines used were correctly identified by STR profiling, and tested negative for mycoplasma contamination using a mycoplasma detection kit through routine screenings.
The IC50 values of the compounds of the present disclosure (including the compounds in Table 1, Table 2, and Examples 1-468) were determined using the CellTiter-Meiluncell Luminescent Cell Viability Assay Kit from Dalian Meilun Biotech Co., Ltd. The detailed procedure is as follows: Tumor cells were seeded in 96-well cell culture plates at the densities specified in Table 4. On the following day, the test compounds of the present disclosure were subjected to serial dilution. The dilution can be performed according to one of the following two methods: • (1) The first dilution method: The test compounds of the present disclosure (including the compounds in Table 1, Table 2, and Examples 1-468) were subjected to 5-fold serial dilutions starting from a highest concentration of 2000 μM, resulting in a total of 9 concentrations from high to low (2000, 400, 80, 16, 3.2, 0.64, 0.128, 0.0256, 0.00512 μM). Subsequently, 0.5 μL of the test compound dilution was transferred into the 96-well plate containing the cells, with each well containing 100 μL of cell culture medium. […] Into the 96-well plate, the diluted test compounds and corresponding detection reagents were added, resulting in final test compound concentrations of 500 nM and 10 nM, respectively. The experimental procedure is described below using the diluted 2 μM test compound as an example.
0.5 μL of the aforementioned diluted compound of the present disclosure (including the compounds in Table 1, Table 2, and Examples 1-468) was added to the seeded cells in 100 μL of medium, yielding a final test compound concentration of 10 nM. After the cells were treated with the compounds of the present disclosure for a specified period, the cell viability assay reagent was added to the culture medium according to the kit's instructions to determine cell viability. […] All controls were treated using the same procedure as the compounds of the present disclosure. The growth inhibition curves for the compounds of the present disclosure were plotted using Prism GraphPad software, and the IC50 values were calculated therefrom.

[3] = system: Human Multiple myeloma cell line (MM.1S); experiment: Inhibition of MM.1S cell proliferation (CellTiter luminescent viability); conditions: Homo sapiens, MM1.S, Table IG1, FAK inhibitor-based, 96 hours; for inhibition at 0.01 µM: 10 nM, read-out: Inhibition Rate at 10 nM (%); for inhibition at 0.5 µM: 500 nM, read-out: Inhibition Rate at 500 nM (%)
Summary of the method: as §1

EZH2 = target: T2, EZH2 (Homo sapiens, UniProt Q15910+Q96SW2); experiment: Western blot degradation of EZH2; conditions: hPBMC Cell; 24 hours
T2 construct: expression of target proteins in cells; endogenous in cells
T2 sequence (Q15910 whole entry): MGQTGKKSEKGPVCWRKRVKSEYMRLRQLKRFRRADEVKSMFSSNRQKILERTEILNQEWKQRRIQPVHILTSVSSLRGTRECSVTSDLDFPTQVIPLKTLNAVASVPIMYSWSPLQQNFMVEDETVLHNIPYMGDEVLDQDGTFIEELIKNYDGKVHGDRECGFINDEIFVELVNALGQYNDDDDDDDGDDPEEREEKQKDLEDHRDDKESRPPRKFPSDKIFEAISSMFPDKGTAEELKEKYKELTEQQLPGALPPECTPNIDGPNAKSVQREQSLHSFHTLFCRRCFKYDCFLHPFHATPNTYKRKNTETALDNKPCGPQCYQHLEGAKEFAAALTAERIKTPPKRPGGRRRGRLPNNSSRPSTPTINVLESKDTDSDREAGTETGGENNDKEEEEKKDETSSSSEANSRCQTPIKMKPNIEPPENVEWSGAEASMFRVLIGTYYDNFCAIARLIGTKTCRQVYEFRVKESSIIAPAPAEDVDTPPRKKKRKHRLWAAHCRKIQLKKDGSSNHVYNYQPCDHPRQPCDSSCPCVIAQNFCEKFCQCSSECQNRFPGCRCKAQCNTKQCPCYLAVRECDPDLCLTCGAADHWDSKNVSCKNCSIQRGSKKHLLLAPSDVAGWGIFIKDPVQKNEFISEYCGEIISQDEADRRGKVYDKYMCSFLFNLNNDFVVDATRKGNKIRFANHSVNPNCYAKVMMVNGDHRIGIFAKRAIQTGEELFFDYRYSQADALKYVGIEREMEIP
T2 sequence (O75530 whole entry partner): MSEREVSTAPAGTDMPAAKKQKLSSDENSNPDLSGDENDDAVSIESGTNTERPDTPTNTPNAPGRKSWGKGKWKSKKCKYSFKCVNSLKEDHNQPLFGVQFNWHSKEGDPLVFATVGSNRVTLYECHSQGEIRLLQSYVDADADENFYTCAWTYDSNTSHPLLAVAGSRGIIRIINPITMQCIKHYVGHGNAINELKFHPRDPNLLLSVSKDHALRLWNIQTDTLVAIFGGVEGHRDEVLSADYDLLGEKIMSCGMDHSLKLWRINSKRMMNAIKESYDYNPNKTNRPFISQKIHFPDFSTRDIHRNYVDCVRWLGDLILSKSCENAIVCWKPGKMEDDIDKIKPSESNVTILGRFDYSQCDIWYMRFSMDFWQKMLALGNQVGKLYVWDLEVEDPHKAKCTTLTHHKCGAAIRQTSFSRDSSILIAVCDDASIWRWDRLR
T2 sequence (Q15022 whole entry partner): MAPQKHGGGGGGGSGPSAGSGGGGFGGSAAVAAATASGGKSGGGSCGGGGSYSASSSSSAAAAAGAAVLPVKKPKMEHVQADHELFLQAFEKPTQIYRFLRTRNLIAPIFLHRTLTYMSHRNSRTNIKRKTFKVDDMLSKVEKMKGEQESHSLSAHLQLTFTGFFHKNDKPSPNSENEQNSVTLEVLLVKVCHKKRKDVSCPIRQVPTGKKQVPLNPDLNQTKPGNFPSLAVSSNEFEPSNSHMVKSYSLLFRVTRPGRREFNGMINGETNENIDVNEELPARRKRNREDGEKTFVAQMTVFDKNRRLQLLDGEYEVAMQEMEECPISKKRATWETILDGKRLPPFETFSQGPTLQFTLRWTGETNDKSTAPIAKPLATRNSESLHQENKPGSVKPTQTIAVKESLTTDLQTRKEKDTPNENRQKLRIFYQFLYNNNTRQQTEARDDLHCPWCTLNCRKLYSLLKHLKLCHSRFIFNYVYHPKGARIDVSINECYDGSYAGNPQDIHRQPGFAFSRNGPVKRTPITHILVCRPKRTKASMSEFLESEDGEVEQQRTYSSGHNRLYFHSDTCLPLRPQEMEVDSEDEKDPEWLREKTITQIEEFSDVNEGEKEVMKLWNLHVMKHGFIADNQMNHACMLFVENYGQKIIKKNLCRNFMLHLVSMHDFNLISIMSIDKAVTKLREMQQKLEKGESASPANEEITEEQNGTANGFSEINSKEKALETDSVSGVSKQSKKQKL
T2 sequence (Q96SW2 whole entry): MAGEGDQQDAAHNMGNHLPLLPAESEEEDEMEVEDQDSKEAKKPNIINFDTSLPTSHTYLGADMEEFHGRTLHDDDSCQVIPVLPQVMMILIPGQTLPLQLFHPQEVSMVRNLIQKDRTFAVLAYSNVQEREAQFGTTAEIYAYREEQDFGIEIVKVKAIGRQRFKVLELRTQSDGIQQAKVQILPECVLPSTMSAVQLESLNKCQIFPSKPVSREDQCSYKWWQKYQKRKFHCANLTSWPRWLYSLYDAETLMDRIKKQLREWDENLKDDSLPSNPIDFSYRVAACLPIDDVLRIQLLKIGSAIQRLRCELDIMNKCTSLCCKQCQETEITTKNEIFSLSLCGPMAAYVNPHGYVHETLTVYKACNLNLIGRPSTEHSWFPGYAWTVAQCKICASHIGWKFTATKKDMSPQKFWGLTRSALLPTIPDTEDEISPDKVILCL
T2 sequence (Q16531 whole entry partner): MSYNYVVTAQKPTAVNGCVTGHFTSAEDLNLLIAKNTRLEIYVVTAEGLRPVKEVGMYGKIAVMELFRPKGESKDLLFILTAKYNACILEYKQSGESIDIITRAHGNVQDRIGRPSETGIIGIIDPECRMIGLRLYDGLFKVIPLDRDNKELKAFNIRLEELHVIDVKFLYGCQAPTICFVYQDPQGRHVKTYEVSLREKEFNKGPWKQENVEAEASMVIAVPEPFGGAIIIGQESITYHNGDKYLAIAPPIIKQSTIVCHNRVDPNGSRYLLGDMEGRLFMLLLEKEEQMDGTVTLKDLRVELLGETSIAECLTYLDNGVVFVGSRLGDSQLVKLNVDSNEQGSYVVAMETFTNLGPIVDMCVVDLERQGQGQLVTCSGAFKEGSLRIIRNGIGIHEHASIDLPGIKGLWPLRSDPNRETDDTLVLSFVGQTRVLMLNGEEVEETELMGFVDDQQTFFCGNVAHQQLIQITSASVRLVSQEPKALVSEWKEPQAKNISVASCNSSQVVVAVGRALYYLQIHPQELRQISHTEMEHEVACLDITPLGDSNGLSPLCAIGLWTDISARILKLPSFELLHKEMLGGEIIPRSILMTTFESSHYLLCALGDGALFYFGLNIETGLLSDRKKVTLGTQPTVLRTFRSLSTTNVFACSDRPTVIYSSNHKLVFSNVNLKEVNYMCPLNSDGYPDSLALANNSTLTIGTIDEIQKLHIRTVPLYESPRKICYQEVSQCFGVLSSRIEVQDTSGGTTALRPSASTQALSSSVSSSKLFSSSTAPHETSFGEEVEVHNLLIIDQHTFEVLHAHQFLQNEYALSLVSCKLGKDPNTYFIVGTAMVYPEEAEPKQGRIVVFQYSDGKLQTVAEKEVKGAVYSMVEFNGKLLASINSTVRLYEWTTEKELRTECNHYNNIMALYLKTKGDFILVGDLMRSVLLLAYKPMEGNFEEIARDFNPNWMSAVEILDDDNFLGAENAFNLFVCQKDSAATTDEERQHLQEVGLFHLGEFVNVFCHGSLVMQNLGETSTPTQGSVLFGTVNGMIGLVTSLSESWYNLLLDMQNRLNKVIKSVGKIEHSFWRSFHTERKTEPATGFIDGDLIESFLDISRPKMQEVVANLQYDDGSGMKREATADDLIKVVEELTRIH
Protocol: as §2, §3, §4, §5, §6, §7, §8, §9

Degradation of substrate protein FAK (substrate protein remaining %) (FAK)	Degradation of substrate protein EZH2 (substrate protein remaining %) (EZH2)	SMILES	inhibition at 0.01 µM [1] [%]	inhibition at 0.5 µM [1] [%]	inhibition at 0.01 µM [2] [%]	inhibition at 0.5 µM [2] [%]	inhibition at 0.01 µM [3] [%]	inhibition at 0.5 µM [3] [%]
A (0%≤substrate protein remaining %≤80%)		CN(c1nccnc1CNc1nc(Nc2ccc(N3CCN(CC4CCN(c5cccc6c5C(=O)N(N5CCC(=O)NC5=O)C6=O)CC4)CC3)cc2)ncc1C(F)(F)F)S(C)(=O)=O [GT-07469, N-(3-(((2-((4-(4-((1-(2-(2,4-dioxotetrahydropyrimidin-1(2H)-yl)-1,3-dioxoisoindolin-4-yl)piperidin-4-yl)methyl)piperazin-1-yl)phenyl)amino)-5-(trifluoromethyl)pyrimidin-4-yl)amino)methyl)pyrazin-2-yl)-N-methylmethanesulfonamide]	0 to 5	80 to 100	30 to 40	50 to 60		
A (0%≤substrate protein remaining %≤80%)		CN(c1nccnc1CNc1nc(Nc2ccc(N3CCN(CC4CCN(c5ccc6c(c5)C(=O)N(N5CCC(=O)NC5=O)C6=O)CC4)CC3)cc2)ncc1C(F)(F)F)S(C)(=O)=O [GT-07468, N-(3-(((2-((4-(4-((1-(2-(2,4-dioxotetrahydropyrimidin-1(2H)-yl)-1,3-dioxoisoindolin-5-yl)piperidin-4-yl)methyl)piperazin-1-yl)phenyl)amino)-5-(trifluoromethyl)pyrimidin-4-yl)amino)methyl)pyrazin-2-yl)-N-methylmethanesulfonamide]	30 to 40	80 to 100	20 to 30	50 to 60	20 to 30	80 to 100
	A (0%≤substrate protein remaining %≤80%)	CCCc1cc(C)[nH]c(=O)c1CNC(=O)c1cc(-c2ccc(N3CCC(N(C)Cc4ccc5c(c4)CN(N4CCC(=O)NC4=O)C5=O)CC3)nc2)cc2c1cnn2C(C)C [GT-08420, 6-(6-(4-(((2-(2,4-dioxotetrahydropyrimidin-1(2H)-yl)-1-oxoisoindolin-5-yl)methyl)(methyl)amino)piperidin-1-yl)pyridin-3-yl)-1-isopropyl-N-((6-methyl-2-oxo-4-propyl-1,2-dihydropyridin-3-yl)methyl)-1H-indazole-4-carboxamide]						
	A (0%≤substrate protein remaining %≤80%)	CCN(c1cc(-c2ccc(N3CCN(C4CCN(CC5CCN(c6cccc7c6C(=O)N(N6CCC(=O)NC6=O)C7=O)CC5)CC4)CC3)cc2)cc(C(=O)NCc2c(C)cc(C)[nH]c2=O)c1C)C1CCOCC1 [GT-08525, N-((4,6-dimethyl-2-oxo-1,2-dihydropyridin-3-yl)methyl)-4′-(4-(1-((1-(2-(2,4-dioxotetrahydropyrimidin-1(2H)-yl)-1,3-dioxoisoindolin-4-yl)piperidin-4-yl)methyl)piperidin-4-yl)piperazin-1-yl)-5-(ethyl(tetrahydro-2H-pyran-4-yl)amino)-4-methyl-[1,1′-biphenyl]-3-carboxamide]						
A (0%≤substrate protein remaining %≤80%)		CNC(=O)c1ccccc1Nc1cc(Nc2ccc(N3CCC(N(C)Cc4ccc5c(c4)CN(N4CCC(=O)NC4=O)C5=O)CC3)cc2OC)ncc1C(F)(F)F [GT-07647, 2-((2-((4-(4-(((2-(2,4-dioxotetrahydropyrimidin-1(2H)-yl)-1-oxoisoindolin-5-yl)methyl)(methyl)amino)piperidin-1-yl)-2-methoxyphenyl)amino)-5-(trifluoromethyl)pyridin-4-yl)amino)-N-methylbenzamide]	40 to 50	80 to 100	40 to 50	70 to 80	20 to 30	40 to 60
